Patent US9289403B2, “Use of modafinil to treat spasticity” (The Board of Trustees of the University of Arizona, priority 2007, dated 2016)
Entries after “also recorded” stand apart in the source; their conditions may differ.

Key:
[1] = system: cortical cells, inferior olivary cells and thalamic reticular cells; conditions: cited from earlier work
[2] = system: H-reflex (hyper-reflexia) in spinally transected rats; assay: H-reflex frequency-dependent depression in spinally transected rats; type: in vivo, rat; conditions: no exercise, 3 mg/Kg/day modafinil p.o. for 30 days, measured 30 days after transection, compared with Tx-30, MBET 30 and control
Experimental: Adult female Sprague-Dawley rats (Harlan, 200-250 g, n=40) underwent a lower thoracic laminectomy under ketamine (60 mg/kg, i.m.) and xylazine (10 mg/kg, i.m.) anesthesia. A complete transection (Tx) of the spinal cord was made by aspiration and the transected ends of the cord retracted, producing a 2-3 mm cavity. Gelfoam was inserted into the cavity to facilitate hemostasis and the dura was closed over the Tx site. Muscle and skin were sutured in separate layers, and animals were provided with dextrose-saline (5%, 1 ml/100 g body weight, s.c.) to replace fluid lost during the surgical procedure. […] Animals were monitored for signs of urinary tract infection, and treatment with Baytril (enroflaxin 0.2 mg/day, i.m. for 10 days) was instituted as needed. […]
Stimulation of the tibial nerve under the calcaneal tendon produced two responses, an early M-wave (2 ms latency), produced by direct activation of motoneuronal axons in the tibial nerve, and a later H-reflex (8 ms latency), produced by activation of muscle afferents in the tibial nerve, which synapse monosynaptically on plantar motoneurons. The degree of stimulation that induced frequency-dependent depression of the H-reflex was determined. […] The change in the response at various frequencies was calculated as the percent of the response at 0.2 Hz in order to determine depression of the H-reflex as a function of stimulation frequency. […]

NC(=O)C[S+]([O-])C(c1ccccc1)c1ccccc1 (centres unmarked) [modafinil]
electrical coupling [1]: increases electrical coupling | H-reflex amplitude at stimulation frequencies from 0.2 to 10 Hz (habituation / hyper-reflexia) [2]: as effective as passive exercise in normalizing exaggerated reflexes; also recorded: decreased (normalized) the H-reflex amplitude to the same extent as 30 days of exercise; also recorded: the reflexes were normalized; also recorded: effective in reducing hyper-reflexia after spinal transection
